According to paper PMC6071089 (Nanomaterials, 2018):

Test system: C2C12 cells
Experiment: Inhibition of CCPs- and caveolae-mediated endocytosis of CK2.3-Qdots
Type: cell-based, murine
Settings: then 100 nM CK2.3-Qdots 18 h, confocal
Method: C2C12 cells were grown in 35 mm dishes containing 18 mm × 18 mm square coverslips at a cell density of 1 × 10^4 cells/well for two days in DMEM media containing 20% FBS and 1% penicillin/streptomycin and at the end of the 2nd day, cells were serum starved with phenol-free DMEM media supplemented with 1% penicillin/streptomycin, but without FBS for 18 h. Next, we used chlorpromazine from Cayman chemical (Ann Arbor, MI, USA) to inhibit CCPs-mediated endocytosis. […] C2C12 cells were treated with 5 μm of Chlorpromazine in DMEM media supplemented with 10% FBS and 1% penicillin/streptomycin for 24 h [41]. […] C2C12 cells were treated with 50 μm of Lovastatin in phenol-free DMEM without FBS and supplemented only with 1% penicillin/streptomycin for 24 h [41, 42]. […] C2C12 cells were treated with 100 μm of methyl-β-cyclodextrin in phenol-free DMEM without FBS and supplemented only with 1% penicillin/streptomycin for 24 h [43]. […] After 18 h, cells were fixed using 4.4% (w/v) paraformaldehyde purchased from Sigma-Aldrich (St. Louis, MO, USA) for 20 min and permeabilized with 0.05% (w/v) saponin from Sigma-Aldrich (St. Louis, MO, USA) diluted in diH2O, for 10 min on ice. Later the nucleus was stained using 100 μL (0.5 ng/mL) of Hoechst (catalog # 23491-45-4) from Sigma-Aldrich (St. Louis, MO, USA). The coverslips were then mounted on the slides using Airvol [38]. Slides were imaged using Zeiss LSM 710 at 63×/1.4 Plan-Apochromat oil objective.
To inhibit both endocytic pathways we used methyl-β-cyclodextrin (MβCD) [60]. […] C2C12 cells were either left unstimulated or stimulated with the pharmacological inhibitors for 24 h. […] Cells were fixed, and images were collected using a confocal microscope (Figure 11).

In the case of CN(C)CCCN1c2ccccc2Sc2ccc(Cl)cc21 [chlorpromazine, Chlorpromazine], the “effect of inhibitor on uptake of CK2.3-Qdots” value (“effect of inhibitor” below) (chlorpromazine 5 μm, 24 h pre-treatment (CCP inhibitor)) is reported as “did not affect the uptake”.

With CC[C@H](C)C(=O)O[C@H]1C[C@@H](C)C=C2C=C[C@H](C)[C@H](CC[C@@H]3C[C@@H](O)CC(=O)O3)[C@H]21 [lovastatin, Lovastatin] the “effect of inhibitor” value (lovastatin 50 μm, 24 h pre-treatment (caveolae inhibitor)) was “prevented CK2.3-Qdot®s from entering C2C12 cells”.

In the case of Methyl-β-cyclodextrin [MβCD], the “effect of inhibitor” value (methyl-β-cyclodextrin 100 μm, 24 h pre-treatment (CCP and caveolae inhibitor)) is reported as “prevented CK2.3-Qdot®s from entering C2C12 cells”.
